Measured values taken from patent publication US8211662B2, “Nitroreductase enzymatic substrates” (Biomerieux, priority 2007, dated 2012).

Tests used:
[1] = system: Bacillus subtilis NCTC 9372; assay: Nitroreductase detection on Columbia agar, colonies read under UV; format: cell-based; parameters: key: − = no fluorescence detected; +/− = weak fluorescence; + = medium fluorescence; ++ = strong fluorescence; conditions: 100 mg/l in Columbia agar, 24 h 37° C., UV 360-365 nm
Method: (§1) A mass of 40 mg of each substrate was dissolved in 4 ml of dimethylformamide (DMF). This solution was entirely taken up in 400 ml of Columbia agar autoclaved beforehand and kept molten at 50° C. The final concentration for each substrate was 100 mg/l.
(§2) Each of the media was distributed into Petri dishes 90 mm in diameter, in a proportion of 20 ml per dish.
(§3) 18 microorganism strains derived from collections and belonging to various species of bacteria and of yeasts were inoculated onto these media by semi-quantitative isolation of 10 μl of a suspension at 0.5 McFarland diluted to 1/20. The media were incubated for 24 hours at 37° C., then the colonies formed were examined visually under UV illumination at 360-365 nm.

[2] = system: Candida albicans ATCC 90028; assay: as above; format: cell-based; parameters: key: − = no fluorescence detected; +/− = weak fluorescence; + = medium fluorescence; ++ = strong fluorescence; conditions: 100 mg/l in Columbia agar, 24 h 37° C., UV 360-365 nm
Method: as §1, §2, §3

[3] = system: Citrobacter freundii 46262 (wild); assay: as above; format: cell-based; parameters: key: − = no fluorescence detected; +/− = weak fluorescence; + = medium fluorescence; ++ = strong fluorescence; conditions: Table 4; 100 mg/l in Columbia agar, 24 h 37° C., UV 360-365 nm
Method: as §1, §2, §3

[4] = system: Enterobacter cloacae NCTC 11936; assay: as above; format: cell-based; parameters: key: − = no fluorescence detected; +/− = weak fluorescence; + = medium fluorescence; ++ = strong fluorescence; conditions: 100 mg/l in Columbia agar, 24 h 37° C., UV 360-365 nm
Method: as §1, §2, §3

[5] = system: Enterococcus faecalis NCTC 775; assay: as above; format: cell-based; parameters: key: − = no fluorescence detected; +/− = weak fluorescence; + = medium fluorescence; ++ = strong fluorescence; conditions: 100 mg/l in Columbia agar, 24 h 37° C., UV 360-365 nm
Method: as §1, §2, §3

[6] = system: Enterococcus faecium NCTC 7171; assay: as above; format: cell-based; parameters: key: − = no fluorescence detected; +/− = weak fluorescence; + = medium fluorescence; ++ = strong fluorescence; conditions: Table 4; 100 mg/l in Columbia agar, 24 h 37° C., UV 360-365 nm
Method: as §1, §2, §3

[7] = system: Escherichia coli NCTC 10418; assay: as above; format: cell-based; parameters: key: − = no fluorescence detected; +/− = weak fluorescence; + = medium fluorescence; ++ = strong fluorescence; conditions: 100 mg/l in Columbia agar, 24 h 37° C., UV 360-365 nm
Method: as §1, §2, §3

[8] = system: Listeria monocytogenes NCTC 11994; assay: as above; format: cell-based; parameters: key: − = no fluorescence detected; +/− = weak fluorescence; + = medium fluorescence; ++ = strong fluorescence; conditions: 100 mg/l in Columbia agar, 24 h 37° C., UV 360-365 nm
Method: as §1, §2, §3

[9] = system: Providencia rettgeri NCTC 7475; assay: as above; format: cell-based; parameters: key: − = no fluorescence detected; +/− = weak fluorescence; + = medium fluorescence; ++ = strong fluorescence; conditions: Table 4; 100 mg/l in Columbia agar, 24 h 37° C., UV 360-365 nm
Method: as §1, §2, §3

[10] = system: Pseudomonas aeruginosa NCTC 10662; assay: as above; format: cell-based; parameters: key: − = no fluorescence detected; +/− = weak fluorescence; + = medium fluorescence; ++ = strong fluorescence; conditions: 100 mg/l in Columbia agar, 24 h 37° C., UV 360-365 nm
Method: as §1, §2, §3

[11] = system: Serratia marcescens NCTC 10211; assay: as above; format: cell-based; parameters: key: − = no fluorescence detected; +/− = weak fluorescence; + = medium fluorescence; ++ = strong fluorescence; conditions: 100 mg/l in Columbia agar, 24 h 37° C., UV 360-365 nm
Method: as §1, §2, §3

[12] = system: Staphylococcus aureus NCTC 6571; assay: as above; format: cell-based; parameters: key: − = no fluorescence detected; +/− = weak fluorescence; + = medium fluorescence; ++ = strong fluorescence; conditions: 100 mg/l in Columbia agar, 24 h 37° C., UV 360-365 nm
Method: as §1, §2, §3

[13] = system: Staphylococcus epidermidis NCTC 11047; assay: as above; format: cell-based; parameters: key: − = no fluorescence detected; +/− = weak fluorescence; + = medium fluorescence; ++ = strong fluorescence; conditions: 100 mg/l in Columbia agar, 24 h 37° C., UV 360-365 nm
Method: as §1, §2, §3

[14] = system: Streptococcus pyogenes NCTC 8306; assay: as above; format: cell-based; parameters: key: − = no fluorescence detected; +/− = weak fluorescence; + = medium fluorescence; ++ = strong fluorescence; conditions: 100 mg/l in Columbia agar, 24 h 37° C., UV 360-365 nm
Method: as §1, §2, §3

[15] = system: Yersinia enterocolitica NCTC 11176; assay: as above; format: cell-based; parameters: key: − = no fluorescence detected; +/− = weak fluorescence; + = medium fluorescence; ++ = strong fluorescence; conditions: 100 mg/l in Columbia agar, 24 h 37° C., UV 360-365 nm
Method: as §1, §2, §3

[16] = system: Acinetobacter baumanii ATCC 19606; assay: as above; format: cell-based; parameters: key to Intensity of fluorescence, Acinetobacter baumanii ATCC 19606 / Intensity of the fluorescence, Acinetobacter baumanii ATCC 19606: − = no fluorescence detected; +/− = weak fluorescence; + = medium fluorescence; ++ = strong fluorescence
Method: as §1, §2, §3

[17] = system: Salmonella typhimurium NCTC 74; assay: as above; format: cell-based; parameters: key to Intensity of fluorescence, Salmonella typhimurium NCTC 74 / F: fluorescence (intensity), Salmonella typhimurium NCTC 74 / Intensity of the fluorescence, Salmonella typhimurium NCTC 74: − = no fluorescence detected; +/− = weak fluorescence; + = medium fluorescence; ++ = strong fluorescence
Method: as §1, §2, §3

[18] = system: Morganella morganii 462403 (wild); assay: as above; format: cell-based; parameters: key to Intensity of fluorescence, Morganella morganii 462403 / F: fluorescence (intensity), Morganella morganii 462403 (wild) / Intensity of the fluorescence, Morganella morganii 462403 (wild): − = no fluorescence detected; +/− = weak fluorescence; + = medium fluorescence; ++ = strong fluorescence; conditions: 100 mg/l in Columbia agar, 24 h 37° C., UV 360-365 nm
Method: as §1, §2, §3

MRSA NCTC 11939 = assay: as above; format: cell-based, Staphylococcus aureus; parameters: key: − = no fluorescence detected; +/− = weak fluorescence; + = medium fluorescence; ++ = strong fluorescence; conditions: 100 mg/l in Columbia agar, 24 h 37° C., UV 360-365 nm
Method: as §1, §2, §3

[19] = system: Candida glabrata NCPF 3943; assay: as above; format: cell-based; parameters: key to Intensity of fluorescence, Candida glabrata NCPF3943 / F: fluorescence (intensity), Candida glabrata NCPF 3943 / Intensity of the fluorescence, Candida glabrata NCPF 3943: − = no fluorescence detected; +/− = weak fluorescence; + = medium fluorescence; ++ = strong fluorescence; conditions: 100 mg/l in Columbia agar, 24 h 37° C., UV 360-365 nm
Method: as §1, §2, §3

[20] = system: S. aureus (including MRSA) 10 strains; assay: Detection of various strains of S. aureus in the presence of substrates; format: cell-based, Staphylococcus aureus; conditions: for No. of strains detected, S. aureus (including MRSA): 10 strains
S. epidermidis 2 strains = assay: as above; format: cell-based
Method: as §1, §2
18 microorganism strains derived from collections and belonging to various species of bacteria and of yeasts were inoculated onto these media by semi-quantitative isolation of 10 μl of a suspension at 0.5 McFarland diluted to 1/20. […]

Staph spp 12 strains = assay: as above; format: cell-based
Enterococcus 6 strains = assay: as above; format: cell-based
[21] = 100 mg/l in Columbia agar, 24 h 37° C., UV 360-365 nm
[22] = Table 4, 100 mg/l in Columbia agar, 24 h 37° C., UV 360-365 nm

Question: For `O=[N+]([O-])c1ccc(F)cc1-c1nc2ccccc2s1` [Substrate 15], which “Intensity of fluorescence, Bacillus subtilis NCTC 9372” value [1] is on record?
Answer: −

Question: And the “Intensity of the fluorescence, Bacillus subtilis NCTC 9372” value ([1]; Table 4)?
Answer: −

Question: What about the “Intensity of fluorescence, Candida albicans ATCC 90028” value [2] of the same compound?
Answer: −

Question: What about the “Intensity of the fluorescence, Candida albicans ATCC 90028” value ([2]; Table 4) of the same compound?
Answer: −

Question: What about the “Intensity of the fluorescence, Citrobacter freundii 46262 (wild)” value [3] of the same compound?
Answer: ++

Question: And the “Intensity of fluorescence, Enterobacter cloacae NCTC 11936” value [4]?
Answer: ++

Question: What about the “Intensity of the fluorescence, Enterobacter cloacae NCTC 11936” value ([4]; Table 4) of the same compound?
Answer: ++

Question: And the “Intensity of fluorescence, Enterococcus faecalis NCTC 775” value [5]?
Answer: −

Question: And the “Intensity of the fluorescence, Enterococcus faecails NCTC 775” value ([5]; Table 4)?
Answer: −

Question: What about the “Intensity of the fluorescence, Enterococcus faecium NCTC 7171” value [6] of the same compound?
Answer: −

Question: What about the “Intensity of fluorescence, Escherichia coli NCTC 10418” value [7] of the same compound?
Answer: ++

Question: What about the “Intensity of the fluorescence, Escherichia coli NCTC 10418” value ([7]; Table 4) of the same compound?
Answer: ++

Question: And the “Intensity of fluorescence, Listeria monocytogenes NCTC 11994” value [8]?
Answer: −

Question: What about the “Intensity of the fluorescence, Listeria monocytogenes NCTC 11994” value ([8]; Table 4) of the same compound?
Answer: −

Question: What about the “Intensity of the fluorescence, Providencia rettgeri NCTC 7475” value [9] of the same compound?
Answer: ++

Question: And the “Intensity of fluorescence, Pseudomonas aeruginosa NCTC 10662” value [10]?
Answer: −

Question: And the “Intensity of the fluorescence, Pseudomonas aeruginosa NCTC 10662” value ([10]; Table 4)?
Answer: +

Question: And the “Intensity of fluorescence, Serratia marcescens NCTC 10211” value [11]?
Answer: ++

Question: What about the “Intensity of the fluorescence, Serratia marcescens NCTC 10211” value ([11]; Table 4) of the same compound?
Answer: ++

Question: And the “Intensity of fluorescence, Staphylococcus aureus NCTC 6571” value [12]?
Answer: ++

Question: What about the “Intensity of the fluorescence, Staphylococcus aureus NCTC 6571” value ([12]; Table 4) of the same compound?
Answer: ++

Question: What about the “Intensity of fluorescence, Staphylococcus epidermidis NCTC 11047” value [13] of the same compound?
Answer: −

Question: And the “Intensity of the fluorescence, Staphylococcus epidermidis NCTC 11047” value ([13]; Table 4)?
Answer: −

Question: What about the “Intensity of fluorescence, Streptococcus pyogenes NCTC 8306” value [14] of the same compound?
Answer: −

Question: And the “Intensity of the fluorescence, Streptococcus pyogenes NCTC 8306” value ([14]; Table 4)?
Answer: −

Question: And the “Intensity of fluorescence, Yersinia enterocolitica NCTC 11176” value [15]?
Answer: −

Question: And the “Intensity of the fluorescence, Yersinia enterocolitica NCTC 11176” value ([15]; Table 4)?
Answer: −

Question: And the “Intensity of fluorescence, Acinetobacter baumanii ATCC 19606” value [16, 21]?
Answer: +

Question: And the “Intensity of the fluorescence, Acinetobacter baumanii ATCC 19606” value [16, 22]?
Answer: +

Question: What about the “Distinguishing Pseudomonas aeruginosa from Acinetobacter baumanii” value ([16]; table 2) of the same compound?
Answer: make it possible to distinguish Pseudomonas aeruginosa from Acinetobacter baumanii

Question: What about the “Intensity of fluorescence, Salmonella typhimurium NCTC 74” value [17, 21] of the same compound?
Answer: ++

Question: And the “Intensity of the fluorescence, Salmonella typhimurium NCTC 74” value [17, 22]?
Answer: ++

Question: What about the “Salmonella typhimurium result with the substrate” value ([17]; table 2) of the same compound?
Answer: strongly positive

Question: What about the “Intensity of fluorescence, Morganella morganii 462403” value [18] of the same compound?
Answer: ++

Question: What about the “Intensity of the fluorescence, Morganella morganii 462403 (wild)” value ([18]; Table 4) of the same compound?
Answer: ++

Question: What about the “Intensity of fluorescence, Staphylococcus aureus NCTC 11939” value (MRSA NCTC 11939) of the same compound?
Answer: ++

Question: What about the “Intensity of the fluorescence, MRSA NCTC 11939” value (MRSA NCTC 11939; Table 4) of the same compound?
Answer: ++

Question: And the “Intensity of fluorescence, Candida glabrata NCPF3943” value [19]?
Answer: −

Question: And the “Intensity of the fluorescence, Candida glabrata NCPF 3943” value ([19]; Table 4)?
Answer: −

Question: What about the “Distinguishing or identifying Staphylococcus aureus strains, in particular MRSA, from most of the other Gram-positive bacterial strains” value [20] of the same compound?
Answer: make it possible to distinguish or identify the Staphylococcus aureus strains

Question: And the “No. of strains detected, S. aureus (including MRSA)” value ([20]; 24 h)?
Answer: 10

Question: What about the “No. of strains detected, S. aureus (including MRSA)” value ([20]; 48 h) of the same compound?
Answer: 10

Question: And the “No. of strains detected, S. epidermidis” value (S. epidermidis 2 strains; 24 h)?
Answer: 0

Question: What about the “No. of strains detected, S. epidermidis” value (S. epidermidis 2 strains; 48 h) of the same compound?
Answer: 2

Question: And the “No. of strains detected, Staph spp” value (Staph spp 12 strains; 24 h)?
Answer: 12

Question: And the “No. of strains detected, Staph spp” value (Staph spp 12 strains; 48 h)?
Answer: 12

Question: What about the “No. of strains detected, Enterococcus” value (Enterococcus 6 strains; 24 h) of the same compound?
Answer: 0

Question: What about the “No. of strains detected, Enterococcus” value (Enterococcus 6 strains; 48 h) of the same compound?
Answer: 1
